pIC50: −log10 of the molar value. A value given as a limit tells only on which side of the number the result lay.

The first experiment has as its target T1, G1 APOL1 (Homo sapiens, UniProt O14791, I384M/S342G).
T1 construct: expressed in transfected cells
T1 sequence (O14791 28-398 S342G/I384M): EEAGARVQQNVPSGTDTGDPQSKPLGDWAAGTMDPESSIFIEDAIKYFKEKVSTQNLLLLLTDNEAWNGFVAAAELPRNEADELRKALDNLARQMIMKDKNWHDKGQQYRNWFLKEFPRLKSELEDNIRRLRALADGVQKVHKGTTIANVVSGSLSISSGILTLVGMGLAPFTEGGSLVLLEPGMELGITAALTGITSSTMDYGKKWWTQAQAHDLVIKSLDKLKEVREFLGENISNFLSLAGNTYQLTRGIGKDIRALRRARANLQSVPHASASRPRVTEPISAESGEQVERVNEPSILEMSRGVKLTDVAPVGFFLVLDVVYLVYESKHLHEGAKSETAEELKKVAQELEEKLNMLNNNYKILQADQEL
The experiment in a line: Acute APOL1 Thallium Assay with Inducible Stable Clones of HEK 293 Cells.
Conditions: not given
The class given is cell-based. In short, it runs like this: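 HEK293 T-Rex cells with a stable tetracycline-inducible G1 APOL1 construct (clone DC3.25) were induced with tetracycline at plating, 26000 cells per well, then incubated at 37° C. They were loaded with an AM-ester thallium-sensitive dye and stimulated with Tl+. The fluorescence rise measured Tl+ influx through APOL1 pores.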
By pIC50 is commonly meant −log10 of the IC50, conventionally taken in molar units. Regarding `CN(C)CCc1c(-c2ccc(F)cc2)[nH]c2c(F)cc(F)cc12` [Compound 429, 2-[5,7-difluoro-2-(4-fluorophenyl)-1H-indol-3-yl]-N,N-dimethyl-ethanamine], the pIC50 is under 6.00.

Staying with this experiment, now noted: HEK 293 inducible stable clones, G1 APOL1; read-out: Thallium Assay (IC50).
Regarding `Cc1nccn1CC(=O)NCCc1c(-c2ccc(F)cc2)[nH]c2c(F)cc(F)cc12` [Compound 380], the negative-log IC50 (pIC50) is under 6.00.
Still for that read-out and setting: the value for `O=C(Cc1cnccn1)NCCc1c(-c2ccc(F)cc2)[nH]c2c(F)cc(F)cc12` [Compound 381] was under 6.00; that for `CS(=O)(=O)CC(=O)NCCc1c(-c2ccc(F)cc2)[nH]c2c(F)cc(F)cc12` [Compound 382] was under 6.00.
On the same count and under the same terms, under `O=C1CC(C(=O)NCCc2c(-c3ccc(F)cc3)[nH]c3c(F)cc(F)cc23)CO1` (stereo not shown) [Compound 383] stands under 6.00.
Still for that read-out and setting: the value for `O=C(NCCc1c(-c2ccc(F)cc2)[nH]c2c(F)cc(F)cc12)c1cncs1` [Compound 384] was under 6.00; that for `O=C(NCCc1c(-c2ccc(F)cc2)[nH]c2c(F)cc(F)cc12)c1cscn1` [Compound 385] was under 6.00; that for `O=C(Cn1cncn1)NCCc1c(-c2ccc(F)cc2)[nH]c2c(F)cc(F)cc12` [Compound 386] was under 6.00.
As to `O=C(Cn1nccn1)NCCc1c(-c2ccc(F)cc2)[nH]c2c(F)cc(F)cc12` [Compound 387], the negative-log IC50 (pIC50) was under 6.00.
Still for that read-out and setting: the value for `Cn1ccnc1C(=O)NCCc1c(-c2ccc(F)cc2)[nH]c2c(F)cc(F)cc12` [Compound 388] was 6.00 to 6.60; that for `Cn1cnc(C(=O)NCCc2c(-c3ccc(F)cc3)[nH]c3c(F)cc(F)cc23)c1` [Compound 389] was under 6.00; that for `Cn1ccc(C(=O)NCCc2c(-c3ccc(F)cc3)[nH]c3c(F)cc(F)cc23)n1` [Compound 390] was under 6.00.
Same read-out and setting: under `Cn1cc(C(=O)NCCc2c(-c3ccc(F)cc3)[nH]c3c(F)cc(F)cc23)cn1` [Compound 391] stands under 6.00.
The same measure, in the same setting: the value for `Cn1nccc1C(=O)NCCc1c(-c2ccc(F)cc2)[nH]c2c(F)cc(F)cc12` [Compound 392] was 6.00 to 6.60.
Regarding `Cc1ccc(C(=O)NCCc2c(-c3ccc(F)cc3)[nH]c3c(F)cc(F)cc23)o1` [Compound 393], the pIC50 was under 6.00.
The same measure, in the same setting: under `Cc1occc1C(=O)NCCc1c(-c2ccc(F)cc2)[nH]c2c(F)cc(F)cc12` [Compound 394] stands under 6.00; under `O=C(Cn1cccc1)NCCc1c(-c2ccc(F)cc2)[nH]c2c(F)cc(F)cc12` [Compound 395], under 6.00; under `O=C(NCCc1c(-c2ccc(F)cc2)[nH]c2c(F)cc(F)cc12)c1cccnn1` [Compound 396], under 6.00.
The same measure, in the same setting: the value for `O=C(NCCc1c(-c2ccc(F)cc2)[nH]c2c(F)cc(F)cc12)c1ncccn1` [Compound 397] was under 6.00; that for `O=C(NCCc1c(-c2ccc(F)cc2)[nH]c2c(F)cc(F)cc12)c1cnccn1` [Compound 398] was under 6.00; that for `O=C(NCCc1c(-c2ccc(F)cc2)[nH]c2c(F)cc(F)cc12)c1ccnnc1` [Compound 399] was under 6.00.
The same measure, in the same setting: the value for `O=C(NCCc1c(-c2ccc(F)cc2)[nH]c2c(F)cc(F)cc12)c1cncnc1` [Compound 400] was under 6.00; that for `O=C(NCCc1c(-c2ccc(F)cc2)[nH]c2c(F)cc(F)cc12)c1cccnc1` [Compound 401] was under 6.00; that for `O=C(NCCc1c(-c2ccc(F)cc2)[nH]c2c(F)cc(F)cc12)c1ccncc1` [Compound 402] was under 6.00.
As for `O=C(NCCc1c(-c2ccc(F)cc2)[nH]c2c(F)cc(F)cc12)c1ccccn1` [Compound 403], the pIC50 was under 6.00.
The same measure, in the same setting: the value for `O=C(NCCc1c(-c2ccc(F)cc2)[nH]c2c(F)cc(F)cc12)C1CC1(F)F` (stereo not shown) [Compound 404] was 6.00 to 6.60.
On to `CC(C)(CF)C(=O)NCCc1c(-c2ccc(F)cc2)[nH]c2c(F)cc(F)cc12` [Compound 405], for which the pIC50 is 6.00 to 6.60.
On the same count and under the same terms, the value for `O=C(NCCc1c(-c2ccc(F)cc2)[nH]c2c(F)cc(F)cc12)C1(F)CCC1` [Compound 406] was 6.00 to 6.60; that for `O=C(NCCc1c(-c2ccc(F)cc2)[nH]c2c(F)cc(F)cc12)[C@H]1CCOC1` [Compound 407] was under 6.00.
Same read-out and setting: the value for `O=C(NCCc1c(-c2ccc(F)cc2)[nH]c2c(F)cc(F)cc12)[C@@H]1CCOC1` [Compound 409] was under 6.00.
Same read-out and setting: the value for `CC1(C(=O)NCCc2c(-c3ccc(F)cc3)[nH]c3c(F)cc(F)cc23)COC1` [Compound 410] was 6.00 to 6.60; that for `CC(C)(C#N)C(=O)NCCc1c(-c2ccc(F)cc2)[nH]c2c(F)cc(F)cc12` [Compound 411] was 6.00 to 6.60; that for `COCCC(=O)NCCc1c(-c2ccc(F)cc2)[nH]c2c(F)cc(F)cc12` [Compound 412] was 6.00 to 6.60.
As to `O=C(NCCc1c(-c2ccc(F)cc2)[nH]c2c(F)cc(F)cc12)C1COC1` [Compound 413], the negative-log IC50 (pIC50) was under 6.00.
The same measure, in the same setting: the value for `O=C(NCCc1c(-c2ccc(F)cc2)[nH]c2c(F)cc(F)cc12)C(F)F` [Compound 414] was under 6.00; that for `O=C(NCCc1c(-c2ccc(F)cc2)[nH]c2c(F)cc(F)cc12)C1CC1` [Compound 415] was 6.00 to 6.60.
On the same count and under the same terms, the value for `N#CCC(=O)NCCc1c(-c2ccc(F)cc2)[nH]c2c(F)cc(F)cc12` [Compound 416] was under 6.00.
Same read-out and setting: under `C=CC(=O)NCCc1c(-c2ccc(F)cc2)[nH]c2c(F)cc(F)cc12` [Compound 417] stands under 6.00; under `CC(=O)NCCc1c(-c2ccc(F)cc2)[nH]c2c(F)cc(F)cc12` [Compound 418, N-[2-[5,7-difluoro-2-(4-fluorophenyl)-1H-indol-3-yl]ethyl]acetamide], under 6.00; under `O=CNCCc1c(-c2ccc(F)cc2)[nH]c2c(F)cc(F)cc12` [Compound 419, N-[2-[5,7-difluoro-2-(4-fluorophenyl)-1H-indol-3-yl]ethyl]formamide], under 6.00.
Regarding `O=C1NC(=O)C(CCS(=O)(=O)NCCc2c(-c3ccc(F)cc3)[nH]c3c(F)cc(F)cc23)N1` (stereo not shown) [Compound 420, N-(2-(5,7-difluoro-2-(4-fluorophenyl)-1H-indol-3-yl)ethyl)-2-(2,5-dioxoimidazolidin-4-yl)ethane-1-sulfonamide], the pIC50 is under 6.00.
Still for that read-out and setting: under `CC(O)CS(=O)(=O)NCCc1c(-c2ccc(F)cc2)[nH]c2c(F)cc(F)cc12` (stereo not shown) [Compound 421] stands under 6.00; under `O=S(=O)(CCO)NCCc1c(-c2ccc(F)cc2)[nH]c2c(F)cc(F)cc12` [Compound 422], under 6.00.
Still for that read-out and setting: under `O=S(=O)(NCCc1c(-c2ccc(F)cc2)[nH]c2c(F)cc(F)cc12)C1CCOCC1` [Compound 423] stands under 6.00; under `Cn1ccnc1S(=O)(=O)NCCc1c(-c2ccc(F)cc2)[nH]c2c(F)cc(F)cc12` [Compound 424], under 6.00.
With `CN(C)S(=O)(=O)NCCc1c(-c2ccc(F)cc2)[nH]c2c(F)cc(F)cc12` [Compound 425], the pIC50 was under 6.00.
For `O=C(NCCc1c(-c2ccc(F)cc2)[nH]c2c(F)cc(F)cc12)OCC1(C(=O)O)CC1` [Compound 426, 1-[2-[5,7-difluoro-2-(4-fluorophenyl)-1H-indol-3-yl]ethylcarbamoyloxymethyl]cyclopropanecarboxylic acid], the pIC50 was under 6.00.
Still for that read-out and setting: under `O=C1NC[C@@H](O)[C@@H]1NCCc1c(-c2ccc(F)cc2)[nH]c2c(F)cc(F)cc12` [Compound 427, (3S,4R)-3-((2-(5,7-difluoro-2-(4-fluorophenyl)-1H-indol-3-yl)ethyl)amino)-4-hydroxypyrrolidin-2-one] stands under 6.00.
On the same count and under the same terms, the value for `CNCCc1c(-c2ccc(F)cc2)[nH]c2c(F)cc(F)cc12` [Compound 428, 2-[5,7-difluoro-2-(4-fluorophenyl)-1H-indol-3-yl]-N-methyl-ethanamine] was under 6.00; that for `COc1ccc2[nH]c(-c3ccc(F)cc3)c(CCNC(=O)OC(C)(C)C)c2c1` [Compound 430, tert-butyl N-[2-[2-(4-fluorophenyl)-5-methoxy-1H-indol-3-yl]ethyl]carbamate] was under 6.00; that for `NCCc1c(-c2ccc(F)cc2)[nH]c2c(F)cc(F)cc12` [Compound 432, 2-[5,7-difluoro-2-(4-fluorophenyl)-1H-indol-3-yl]ethanamine] was under 6.00.
Same read-out and setting: the value for `CC(CO)(CO)NC(=O)OCCc1c(-c2ccc(F)cc2)[nH]c2c(F)cc(F)cc12` [Compound 434, 2-[5,7-difluoro-2-(4-fluorophenyl)-1H-indol-3-yl]ethyl N-[2-hydroxy-1-(hydroxymethyl)-1-methyl-ethyl]carbamate] was over 6.60; that for `CC(C)(CO)NC(=O)OCCc1c(-c2ccc(F)cc2)[nH]c2c(F)cc(F)cc12` [Compound 435] was over 6.60.
In the case of `O=C(NC1(CO)CCC1)OCCc1c(-c2ccc(F)cc2)[nH]c2c(F)cc(F)cc12` [Compound 436], the pIC50 was over 6.60.
On the same count and under the same terms, the value for `O=C(NC(CO)CO)OCCc1c(-c2ccc(F)cc2)[nH]c2c(F)cc(F)cc12` [Compound 437] was over 6.60; that for `O=C(NC1(CO)CC1)OCCc1c(-c2ccc(F)cc2)[nH]c2c(F)cc(F)cc12` [Compound 438] was over 6.60; that for `C[C@@H](CO)NC(=O)OCCc1c(-c2ccc(F)cc2)[nH]c2c(F)cc(F)cc12` [Compound 440] was over 6.60.
Take `O=C(N[C@@H](CO)C(F)F)OCCc1c(-c2ccc(F)cc2)[nH]c2c(F)cc(F)cc12` [Compound 441]: the negative logarithm of the IC50 (pIC50) was over 6.60.

(Values after patent US20230014907A1, “INHIBITORS OF APOL1 AND METHODS OF USING SAME” (Vertex Pharmaceuticals Incorporated, priority 2020, published 2023).)
